In patent publication US20240254087A1, “SELECTIVE, PARTIAL, AND ARRESTIN-BIASED 5-HT2A AGONISTS WITH UTILITY IN VARIOUS DISORDERS” (Saint Joseph's University, priority 2021, published 2024):
“Also recorded” adds a separate entry of the source.

Tests used:
5-HT2A [1] = biological target: T1, 5-HT2A (Homo sapiens, UniProt P28223); assay: Antagonism of 5-HT-induced Gq signaling (BRET); type: cell-based; parameters: expressed in transfected cells; host or cells: HEK293T, transient
5-HT2A [2] = biological target: T1, 5-HT2A; assay: [3H]-ketanserin displacement, 5-HT2A membranes; type: binding; parameters: ES-313-M400UA (membranes); host or cells: CHO-K1
5-HT2A [3] = biological target: T1, 5-HT2A; assay: cell-based; parameters: expressed in transfected cells; host or cells: HEK293T, transient; details: read-out: 5-HT2A Gq Emax (% 5-HT), BRET, mean ± SEM
5-HT2A [4] = biological target: T1, 5-HT2A; assay: NanoLuc internalization assay; type: cell-based; details: 60 min
male C57BL/6J mice = assay: Blockade of agonist-induced HTR by pretreatment; type: in vivo, mouse; details: pretreatment of mice with test compound
Procedure: (§1) Vehicle or the NMDA receptor antagonist PCP (5 mg/kg) was injected IP 10 min after SC administration of vehicle or 25N-NB1-Nap (16), and then the mice were placed in the test chambers 10 min later for a 60-min assessment of locomotor activity. (C). […] Mice were treated with vehicle or M100907 (0.03 mg/kg SC) 10 min prior to vehicle or PCP (5 mg/kg IP): animals were placed in the test chambers 10 min after treatment with PCP.
Male C57BL/6J mice (6-8 weeks old) from Jackson Labs (Bar Harbor, ME, USA) were used for the behavioral experiments. The mice were housed on a reversed light-dark cycle (lights on at 1900 h, off at 0700 h) in an AAAC-approved vivarium at the University of California San Diego. Mice were housed up to four per cage in a climate-controlled room and with food and water provided ad libitum except during behavioral testing. Testing was performed between 1000 and 1800 h (during the dark phase of the light-dark cycle). The studies were conducted in accordance with National Institutes Health (NIH) guidelines and were approved by the University of California San Diego Institutional Animal Care and Use Committee.
The mice were allowed to recover from the magnet implantation surgeries for at least 1 week prior to behavioral testing. HTR experiments were conducted in a well-lit room, and the mice were allowed to habituate to the room for at least 1 h prior to testing. Head twitches was assessed in a 12-cm diameter glass cylinder surrounded by a magnetometer coil. Coil voltage was low-pass filtered (2 kHz), amplified, and digitized (20-kHz sampling rate) using a Powerlab/8SP with LabChart v 7.3.2 (ADInstruments, Colorado Springs, CO, USA). […] HTR counts were analyzed using one-way ANOVAs. Dunnett's test was used for post hoc comparisons.

h5-HT2A = biological target: T2, h5-HT2A (Homo sapiens, UniProt P28223); assay: Antagonism of 5-HT induced Ca2+ flux activation; type: cell-based; details: FIG. 1D
T2 construct: expressed in transfected cells
T2 sequence (P28223 whole entry): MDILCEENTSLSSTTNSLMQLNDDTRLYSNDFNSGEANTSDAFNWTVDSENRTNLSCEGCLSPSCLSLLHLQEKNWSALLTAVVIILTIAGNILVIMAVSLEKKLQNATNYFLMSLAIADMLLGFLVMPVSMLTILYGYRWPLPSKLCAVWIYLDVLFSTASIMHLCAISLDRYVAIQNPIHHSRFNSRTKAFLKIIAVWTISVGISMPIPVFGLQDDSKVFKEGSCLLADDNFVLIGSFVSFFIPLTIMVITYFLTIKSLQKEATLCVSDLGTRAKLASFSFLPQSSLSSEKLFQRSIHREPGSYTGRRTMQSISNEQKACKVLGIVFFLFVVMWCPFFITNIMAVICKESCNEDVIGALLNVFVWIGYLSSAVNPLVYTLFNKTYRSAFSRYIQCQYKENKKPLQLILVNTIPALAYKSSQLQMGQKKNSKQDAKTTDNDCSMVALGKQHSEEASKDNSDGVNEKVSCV
Procedure: as §1, with “(A). DOI, a hallucinogen and 5-HT2A agonist, was administered IP 10 min after SC administration of vehicle or test drug. A and then HTR activity was assessed for 30 minutes. *p<0.001, significant difference vs. vehicle (B). Vehicle” for “Vehicle”, “PCP. Animals were tested for 60 min. *p<0.01 vs. vehicle: ^#p<0.01 vs. PCP alone.” for “PCP.”
Calcium flux was measured using stable-expressing 5-HT2 Flp-In 293 T-Rex Tetracycline inducible system described previously (Investigation of the Structure-Activity Relationships of Psilocy bin Analogues, ACS Pharmacol. Transl. Sci. 2020, Publication Date: Dec. 14, 2020, https://doi.org/10.1021/acsptsci.0c00176). […] After dye load, cells were allowed to equilibrate to room temperature for 15 minutes, and then placed in a FLIPR^TETRA fluorescence imaging plate reader (Molecular Devices). Fluorescence for the FLIPR^TETRA were programmed to read baseline fluorescence for 10 s (1 read/s), and afterward 5 μl of drug per well was added and read for a total of 5-10 min (1 read/s). […]

T1 sequence (P28223 whole entry): as above

Q: For `COc1cc([N+](=O)[O-])c(OC)cc1CCNCc1cccc2ccccc12` [25N-N-1-Nap (16), [2-(2,5-dimethoxy-4-nitrophenyl)ethyl][(naphthalen-1-yl)methyl]amine], which “Antagonism of 5-HT-induced 5-HT2A-mediated Gq signaling” value (5-HT2A [1]) is on record?
A: The value was “antagonized”.

Q: What about the Ki (5-HT2A [2]) of the same compound?
A: The Ki was 4.27 nM.

Q: What about the Emax (5-HT2A [3]) of the same compound?
A: The Emax was 23.7 ± 1.4%.

Q: And the “Internalization of 5-HT2A receptors” value (5-HT2A [4])?
A: The value was “potent and strong internalization”.

Q: What about the “Blockade of the HTR induced by DOI” value (male C57BL/6J mice) of the same compound?
A: The value was “blocked the HTR”.

Q: And the “Antagonism of 5-HT induced h5-HT2A Ca2+ flux activation” value (h5-HT2A)?
A: The value was “Antagonism”.

Q: Which results are given for `COc1cc([N+](=O)[O-])c(OC)cc1CCNCc1cccc(C)c1O` [25N-NB-2-OH-3-Me (18), 2-({[2-(2,5-dimethoxy-4-nitrophenyl)ethyl]amino}methyl)-6-methylphenol]?
A: Emax (5-HT2A [3]): 50.8 ± 1.6%; Blockade of the HTR induced by DOI (male C57BL/6J mice): blocked the HTR; also recorded: can block the HTR

Q: Which Emax (5-HT2A [3]) does the source give for `COc1cc([N+](=O)[O-])c(OC)cc1CCNCc1ccccc1` [25N-NB (2), Benzyl[2-(2,5-dimethoxy-4-nitrophenyl)ethyl]amine] here?
A: Its Emax is 79.5 ± 1.5%.

Q: `COc1cc([N+](=O)[O-])c(OC)cc1CCNCc1cccc(O)c1` [25N-NB-3-OH (21), 3-({[2-(2,5-dimethoxy-4-nitrophenyl)ethyl]amino}methyl)phenol] was tested. Which Emax (5-HT2A [3]) did it give?
A: Its Emax is 49.8 ± 4.3%.

Q: For `COc1cc([N+](=O)[O-])c(OC)cc1CCN` [2C-N (1), 2-(2,5-dimethoxy-4-nitrophenyl)ethan-1-amine, reference compound], which Emax (5-HT2A [3]) is on record?
A: The Emax was 87.9 ± 1.4%.

Q: `COc1cc([N+](=O)[O-])c(OC)cc1CCNCc1ccccc1-c1ccccc1` [25N-NBPh (17), ({[1,1′-biphenyl]-2-yl}methyl)[2-(2,5-dimethoxy-4-nitrophenyl)ethyl]amine] was tested. Which “Antagonism of 5-HT-induced 5-HT2A-mediated Gq signaling” value (5-HT2A [1]) did it give?
A: The value was “antagonized”.

Q: What about the Emax (5-HT2A [3]) of the same compound?
A: Its Emax is 23.2 ± 1.5%.

Q: What about the “Internalization of 5-HT2A receptors” value (5-HT2A [4]) of the same compound?
A: The value was “potent and strong internalization”.

Q: What about the “Blockade of the HTR induced by DOI” value (male C57BL/6J mice) of the same compound?
A: Its value is “blocked the HTR”.

Q: And the “Antagonism of 5-HT induced h5-HT2A Ca2+ flux activation” value (h5-HT2A)?
A: The value was “Antagonism”.

Q: With `COc1cc([N+](=O)[O-])c(OC)cc1CCNCc1ccccc1OC` [25N-NBOMe (4), [2-(2,5-dimethoxy-4-nitrophenyl)ethyl] [(2-methoxyphenyl)methyl]amine] as the compound, how does the Ki (5-HT2A [2]) read?
A: The Ki was 1.41 nM.

Q: And the Emax (5-HT2A [3])?
A: Its Emax is 98%.

Q: And the “Internalization of 5-HT2A receptors” value (5-HT2A [4])?
A: Its value is “strong internalization”.

Q: With `COc1cc([N+](=O)[O-])c(OC)cc1CCNCc1cccc(C)c1` [25N-NB-3-Me (22), [2-(2,5-dimethoxy-4-nitrophenyl)ethyl][(3-methylphenyl)methyl]amine] as the compound, how does the Emax (5-HT2A [3]) read?
A: Its Emax is 41.7 ± 3.4%.

Q: With `COc1cc([N+](=O)[O-])c(OC)cc1CCNCc1cccc(F)c1OC` [25N-NB-2-MeO-3-F (19), [2-(2,5-dimethoxy-4-nitrophenyl)ethyl][(3-fluoro-2-methoxyphenyl)methyl]amine] as the compound, how does the Emax (5-HT2A [3]) read?
A: Its Emax is 71.1 ± 1.9%.
